From patent US20170100345A1, “WOUND HEALING USING BRAF INHIBITORS” (THE REGENTS OF THE UNIVERSITY OF CALIFORNIA, priority 2014, published 2017)
Where “and” joins values, the source holds several entries; their conditions need not be identical. Identical values can stand only once. Entries after “also recorded” stand apart in the source; their conditions may differ.

How the values were obtained:
HEKa = experiment: three-dimensional soft agar colony assay, HEKa; type: cell-based, human
Excerpt: (§1) FIG. 2 illustrates that BRAF inhibition induces paradoxical MAPK activation in human keratinocytes leading to increased proliferation. FIG. 2A is a quantitative analysis of proliferation and scratch healing as the percentage relative wound density of cells at different time points in replicate cultures of HEKa in the presence or absence of vemurafenib by automated microscope analyzer. P value <0.0044 by t-test. […] FIG. 2C illustrates fold-change representation of colony quantification of HEKa and M249 cells grown in soft-agar with or without exposure to vemurafenib. […] The co-expression levels of pERK and Ki67 are shown in the middle of the panel, and quantified and represented a fold change on the left.
(§2) Quantitative analysis of proliferation is represented in FIG. 2A.
(§3) Human epithelial adult keratinocytes (HEKa) cultured in 96-well plates were subject to a scratch assay, where proliferating keratinocytes should regrow and cover the scratch. Replicate cultures with or without the BRAF inhibitor vemurafenib were placed in an incubator with an automated microscope analyzer and the number of nucleated cells in the original scratch was recorded over time. […] Using these cultures, paradoxical MAPK activation and cell proliferation were analyzed by western blot (FIGS. 2F-2G) and quantitative phosphoflow cytometry (FIG. 2H and FIGS. 4A-4B).

[1] = test system: Human epithelial adult keratinocytes (HEKa); experiment: cell proliferation wound-healing assay, 96 well plates with seeder stoppers; type: cell-based; conditions: 24 hours, vs control treated wells
Excerpt: as §1, §3

[2] = test system: Human epithelial adult keratinocytes (HEKa); experiment: scratch assay of HEKa, automated microscope analyzer; type: cell-based; conditions: HEKa with vs without vemurafenib; evident at 6, 8 and 12 hours
Excerpt: as §1, §2, §3

[3] = test system: skin wounds and their surroundings; experiment: histological analysis (H&E) of healing wounds in mice; type: in vivo
Excerpt: FIG. 6 is a schematic representation of the pathological analysis of wound healing on days 1 (D1), 2 (D2) and 6 (D6) post-treatment. […] Wound-adjacent epidermis undergoes hyperplasia and proliferation and epidermal cells from this process migrate centrally to seal the incised epidermal deficiency. The space of the incision fills initially with fibrin, which is then colonized by fibroblasts, macrophages, polymorphonuclear cells and new capillaries. […] Each bar includes data from 4 samples.
The area of the wounds and their surroundings were analyzed histologically by H&E staining by two pathologists and the extent of epidermal hyperplasia on both sides of the healing wounds was measured on days 1, 2 and 6 post-treatment (FIGS. 6A and 6B).

2.5 cm dorsal skin wound = experiment: wound-healing assay in C3H mice, wound tensile strength by tensiometer; type: in vivo
Procedure: FIG. 5A is a schematic representation of the wound-healing assay performed in […] mice according to some embodiments.
In a controlled wound-healing assay in C3H mice, a 2.5 cm dorsal skin wound was induced and was filled with either vehicle control (DMSO/saline) or a suspension of 2 mM of vemurafenib (obtained by crushing clinical grade pills of this agent) in vehicle. The skin wounds were surgically clipped on day 0 and mice were followed until day 14 (FIGS. 5A-5B). Over this time, the vemurafenib suspension or vehicle control was applied topically every other day to 24 mice in the test group or to 24 mice in the control group, respectively, for a total of seven doses per mouse. On day 14, the mice were euthanized and the skin containing the wound was removed and mounted in 20 mm strips with a horizontal wound sample in each strip. The wound tensile strength (WTS) was analyzed using a tensiometer that stretched the strips and recorded the WTS in gram force (gf).

[4] = test system: MAPK and wound healing pathway output; experiment: RNASeq gene expression profiling of healing cutaneous wounds; type: in vivo, mice
Procedure: The skin samples obtained from mice treated either with vemurafenib or vehicle were analyzed for changes in MAPK and wound healing pathway output by RNASeq. The gene output of MAPK was compared to published data on the transcripts that were differentially modulated by blocking oncogenic MAPK signaling downstream of mutated BRAF^V600E using BRAF inhibitors, or to a published cutaneous wound healing gene signature.

[5] = test system: BRAF^V600E mutant melanoma line M249; experiment: three-dimensional soft agar colony assay, M249; type: cell-based, human; conditions: M249, with vs without exposure
Excerpt: as §1, §2, §3

[6] = test system: pERK and Ki67 in BRAF^V600E mutant human melanoma cell line M249; experiment: MAPK signaling and cell proliferation by western blot and phosphoflow cytometry, M249; type: cell-based; conditions: western blot and phosphoflow (VEM 2 μM)
Excerpt: as §1, §3

[7] = test system: pERK and Ki67 in HEKa cells; experiment: paradoxical MAPK activation and cell proliferation by western blot and phosphoflow cytometry, HEKa; type: cell-based, human; conditions: western blot and phosphoflow (VEM 2 μM)
Excerpt: as §1, §3

CCCS(=O)(=O)Nc1ccc(F)c(C(=O)c2c[nH]c3ncc(-c4ccc(Cl)cc4)cc23)c1F [vemurafenib]
mean spot size of HEKa colonies (HEKa; soft agar): increased significantly
number of HEKa colonies in soft agar (HEKa; with vs without exposure): increased in number
covering of the center of the wells by proliferating/migrating keratinocytes [1]: covered the center of the wells after 24 hours
covering of the original scratch (proliferation and scratch healing, relative wound density) [2]: accelerated the proliferation and migration of human keratinocytes; also recorded: statistically significant improvement in the covering of the original scratch
wounds re-epithelialized ([3]; by day 6): 100%
extent (length) of epidermal hyperplasia vs other treated groups ([3]; day 1 and 2): epidermal hyperplasia over a greater distance than the other treated groups
wound-adjacent epidermal inflammation ([3]; day 1 post-incision): more extensive
wound-adjacent (peri-lesional) epidermal hyperplasia, photomicrographs ([3]; day 2 post-incision): more extensive
dermal reparative / sub-epidermal fibrosis ([3]; day 6): beginning of sub-epidermal fibrosis
extent (length) of epidermal hyperplasia vs other treated groups ([3]; day 6): less epidermal hyperplasia
skin surface integrity ([3]; day 6): surface integrity was re-established; also recorded: Skin surface integrity re-established in 6 days
healing process / signs of healing or repair (pathologists' assessment) ([3]; days 1 to 6): the healing process is accelerated
onset of re-epithelialization ([3]; from day 2): strong and rapid re-epithelialization starting at day 2
improvement in wound tensile strength (WTS) compared to saline control (2.5 cm dorsal skin wound; C3H mice, 2 mM suspension topically every other day, day 14, three independent replicate experiments (#1-3)): 52.6% and 32.9% and 42.8%
improvement in WTS vs. vehicle control (2.5 cm dorsal skin wound; separate cutaneous wound-healing assay (Experiment #4), trametinib 1 mg/kg where added): 37%
tensile strength of healing wounds (in words) (2.5 cm dorsal skin wound; wound-healing mouse model, topically applied): improved the tensile strength of healing wounds
BRAF and wound-healing signatures, later course ([4]; after day 6, time point not given): more pronounced decrease
BRAF signature genes ([4]; day 2, vs control): slight increase
wound-healing signature genes ([4]; day 2, vs control): almost no change
BRAF signature genes ([4]; day 6, vs control): enriched significantly
wound-healing signature genes ([4]; day 6, vs control): enriched significantly
number of M249 colonies in soft agar [5]: decrease in colonies
cell cycle (Ki67) [6]: cell cycle arrest
pERK [6]: decreased pERK
cell cycle (Ki67) [7]: cell cycle progression
pERK [7]: paradoxical increase in pERK
